This passage reports IC50 results from PubChem BioAssay AID1117319 (Southern Research Institute, 2015).

Results filed as inconclusive are left out.

This assay addresses Virion infectivity factor (Human immunodeficiency virus type 1 group M subtype B (isolate BH10)) + Virion infectivity factor (Human immunodeficiency virus type 1 group M subtype B (isolate BRU/LAI)) + Virion infectivity factor (Human immunodeficiency virus type 1 group M subtype B (isolate PCV12)) + Virion infectivity factor (Human immunodeficiency virus type 1 group M subtype B (isolate HXB2)) + DNA dC->dU-editing enzyme APOBEC-3G (Homo sapiens) (UniProt P69720+P69721+P69722+P69723+Q9HC16). As to the kind of experiment: inhibitors of Vif binding to APOBEC3G peptide, primary screen, biochemical, TR-FRET, GST-Vif 1-94, biotin-A3G peptide, dose response retest (AID 1117319).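 Further: Vif residues 1-94 fused to GST binding biotinylated APOBEC3G peptide 110-148.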
As for `CN(C)C(CNC(=O)c1cccnc1Sc1ccccc1)c1ccco1` (stereo not given), the IC50 (usually the point on the concentration scale where inhibition reaches its midpoint) was 64 µM.

Regarding `O=C(O)CC(Cn1cnnn1)c1ccccc1` (stereo not given), the IC50 is 58.8 µM.

For `CCC(Cc1ccccc1)NC(=O)C1CCN(S(=O)(=O)c2c(C)noc2C)CC1` (stereo not given), the IC50 is 91 µM.

As to `O=[N+]([O-])c1c(Nc2ccccc2O)cc(Cl)c2nonc12`, the IC50 is 9.34 µM.

In the case of `CCOC(=O)c1sc2nc(CC(=O)OC)nc(NCc3ccco3)c2c1C`, the half-maximal inhibitory concentration (IC50) was 2.44 µM.

Turning to `O=C(O)CCCN1C(=O)/C(=C\C(Cl)=C\c2ccccc2)SC1=S`, the IC50 was 2.45 µM.

On to `C=C(C)C(=O)Nc1cccc(C2=NOC3(C2)C[C@@H](C(N)=O)N(C(=O)CCCCC)C3)c1` (stereo not given in full), for which the IC50 was 0.22 µM.

For the compound `Cc1cc(Cl)cc2c1NC(=O)[C@]21[C@@H]2C(=O)N(Cc3ccccc3)C(=O)[C@@H]2[C@@H]2CCCN21`, the IC50 was 38 µM.

`Nc1ccc(N2CCN(Cc3ccccc3Cl)CC2)c(Cl)c1`: the IC50 is 85.1 µM.

`CCn1c(SC(C)C(=O)O)nc2sc3c(c2c1=O)CCC3` (stereo not given): the IC50 is 8.89 µM.

For the compound `COc1cccc(C2NC(=O)NC(O)(C(F)(F)F)C2C(=O)c2cccnc2)c1OC` (stereo not given), the half-inhibitory concentration (IC50) is 47.1 µM.

With `C=CC(=O)N1C/C(=C/c2ccc(F)cc2)C(=O)/C(=C\c2ccc(F)cc2)C1`, the IC50 is 7.41 µM.

With `CC(=O)Nc1cccc(Oc2ncnc3scc(-c4ccccc4)c23)c1`, the IC50 was 16.8 µM.

Turning to `CC1(CCl)N([O-])C2=C(CCCC2)[N+]1=O` (stereo not given), the IC50 was 8.49 µM.

In the case of `NC(=O)c1cc(N)ccc1N1CCCC1`, the IC50 is 1.12 µM.

For the compound `Cc1cccc(C)c1NC(=O)c1ccc(-n2cnnn2)cc1`, the IC50 was 35.8 µM.

`O=C(CN1CCN(c2ccccc2O)CC1)Nc1ccc2c(c1)CCC2`: the IC50 is 50.8 µM.

For the compound `Cc1ccc(C)c(/C(O)=C2/C(=O)C(=O)N(CCN3CCOCC3)C2c2ccco2)c1` (stereo not given), the IC50 was 18.1 µM.

For `COc1cc(NC(=O)CS(=O)(=O)c2ccc(C)cc2)cc(OC)c1OC`, the IC50 is 23.3 µM.

With `N=C1/C(=C/c2ccc(Br)o2)C(=O)N=C2SC(CC(=O)N3CCCC3)=NN12`, the IC50 was 27.8 µM.

With `Cc1ccc(N2C(=O)/C(=C/c3ccc(CN(CCC#N)S(C)(=O)=O)o3)C(=O)NC2=S)cc1`, the IC50 was 8.32 µM.

As for `Cc1cccc(N(C(=O)Cn2nnc3ccccc32)C(C(=O)NCc2ccco2)c2ccncc2)c1C` (stereo not given), the IC50 was 4.66 µM.

Consider `O=C1C(Cl)=C(N2CCCCC2)C(=O)C(Cl)=C1c1cnc(N2CCCCC2)s1`, for which the IC50 was 4.21 µM.

Regarding `Cc1cnnc2ccc3c(no[n+]3[O-])c12`, the IC50 is 4.71 µM.

As for `O=C(NCCCO)Nc1ccc2nc(-c3ccco3)c(-c3ccco3)nc2c1`, the IC50 is 0.26 µM.

As for `COc1ccc2nc(-c3ccco3)c(-c3ccco3)nc2c1`, the IC50 was 0.35 µM.

With `FC(F)(F)c1cc(-c2ccco2)nc(NCc2ccco2)n1`, the IC50 is 4.24 µM.

Take `O=[N+]([O-])c1ccccc1S(=O)(=O)NC1CCCC1`: the IC50 was 12.9 µM.

In the case of `O=C(O)c1ccc2c(c1)[C@@H]1C=CC[C@@H]1[C@H](c1ccccn1)N2`, the IC50 was 1.05 µM.

`COc1cccc(-c2cc(C(=O)Nc3c(C)n(C)n(-c4ccccc4)c3=O)no2)c1`: the IC50 is 72.5 µM.

On to `CCOc1ccc(NCC2CCOC(C)(C)C2)cc1` (stereo not given), for which the IC50 was 9.47 µM.

In the case of `Cc1[nH]c2ccccc2c1Cc1nnc(SCc2ccccc2)o1`, the IC50 is 70.8 µM.

As for `N#Cc1c(N)sc(=S)c2c1CCCCC2`, the concentration for half-maximal inhibition (IC50) was 4.22 µM.

For `CCOC(=O)N1CCN(C(=O)c2ccc3c(SCC(=O)O)c4c(nc3c2)CCC4)CC1`, the IC50 was 1.9 µM.

For `COc1ccc(NC(=O)c2ccccc2NC(=O)CSc2ccc(Cl)cc2)cc1`, the IC50 was 57.7 µM.

In the case of `COC/C=C/C1=CC2=CC(=O)C(C)(OC(=O)CCC(=O)OC)C(=O)C2=CO1` (stereo not given), the IC50 was 1.35 µM.

Consider `COc1ccccc1NC(=O)COC(=O)c1cc2c(s1)CCC2`, for which the IC50 was 17.6 µM.

On to `C=C(C)C(=O)Nc1cccc(C2=NOC3(C2)C[C@@H](C(N)=O)N(C(=O)CC(c2ccccc2)c2ccccc2)C3)c1` (stereo not given in full), for which the IC50 is 3.06 µM.

With `CNc1ccc(Br)cc(C(=O)/C=C/c2cccc(OC)c2OC)c1=O`, the IC50 was 4.1 µM.

Turning to `COc1cc(CC(=O)OCC(=O)Nc2cccc([N+](=O)[O-])c2)cc(OC)c1OC`, the IC50 is 11.8 µM.

`COc1ccc(CCNC(=O)/C=C/c2ccco2)cc1`: the IC50 was 37 µM.

For the compound `Cn1cccc1/C=C1/C(=O)NC(=O)N(Cc2ccc(F)cc2)C1=O`, the IC50 was 8.76 µM.

Regarding `C/C(=N\O)C(=O)NCc1ccccn1`, the IC50 is 77.5 µM.

As to `O=C(O)c1ccc(Sc2nnnn2-c2ccccc2)c([N+](=O)[O-])c1`, the IC50 was 89.9 µM.

`Cc1cc(C)cc(Nc2ncc3c(n2)CC(c2ccco2)CC3=O)c1` (stereo not given): the IC50 was 6.84 µM.

Regarding `CCOC(=O)C1CCCN(c2ncnc3c2cnn3-c2ccc(Cl)cc2)C1` (stereo not given), the IC50 was 36 µM.

Take `CCN(CC)c1ccc(NC2=C(Cl)C(=O)c3ccccc3C2=O)cc1`: the IC50 is 3.81 µM.

For the compound `Cc1cc(Cl)c(S(=O)(=O)NCC2CCCO2)cc1OCC(=O)NC1CCCCC1` (stereo not given), the IC50 was 77.1 µM.

On to `Oc1ccc(/C=N/NC2=NCCCCC2)c(O)c1`, for which the IC50 was 4.9 µM.

As for `O=C(/C=C/c1ccco1)NC(=S)Nc1ccc(C(=O)O)cc1`, the IC50 was 16.1 µM.

Regarding `Cc1nc2ccc(NC(=O)Cc3cccs3)cc2s1`, the IC50 is 84 µM.

For `CCOc1cc(N2CCOCC2)c(OCC)cc1NC(=O)CSc1ncn[nH]1`, the IC50 was 11.9 µM.

As to `CC(=O)OC(C)C1C2=C(C(=O)CC1(C)O)C(=O)c1c(ccc(-c3ccc4c(c3O)C(=O)C3=C(C4=O)C(C(C)OC(C)=O)C(C)(O)CC3=O)c1O)C2=O` (stereo not given), the IC50 is 0.73 µM.

Turning to `CC1=Nc2cccc3cccc(c23)N1`, the IC50 was 0.53 µM.

Regarding `CN1CCc2cccc3c2[C@@H]1Cc1ccc(O)c(O)c1-3`, the IC50 was 1.66 µM.

For `CNc1ccccc(C(=O)/C=C/c2ccccc2OC)c1=O`, the IC50 is 3.9 µM.

`O=C(CN1C(=O)NC2(CCCCCCC2)C1=O)NCc1cccs1`: the concentration for half-maximal inhibition (IC50) is 11.1 µM.

Take `COc1cc(/C=C2\CC/C(=C\c3cc(OC)c(O)c(OC)c3)C2=O)cc(OC)c1O`: the IC50 was 1.56 µM.

Take `CCOc1ccc(N(CC(=O)NC(C)(C)C)S(=O)(=O)c2c(C)noc2C)cc1`: the IC50 was 5.1 µM.

Consider `O=C(Nc1ccccc1)C1=C(O)CC(c2ccco2)CC1=Nc1ccccc1` (stereo not given), for which the IC50 was 15.1 µM.

As for `Cc1ccccc1NC(=O)c1c(C)[nH]c(=S)c(C#N)c1-c1ccco1`, the IC50 is 18.7 µM.

Turning to `CC1CCCCC1NC(=O)COC(=O)c1c2c(nc3ccccc13)/C(=C/c1ccco1)CC2` (stereo not given), the IC50 is 1.33 µM.

Consider `CCN1CCN(c2cc(N3CCN(C(=O)c4ccco4)CC3)c3c4c(onc24)-c2ccccc2C3=O)CC1`, for which the IC50 is 3.06 µM.

With `Cc1cc(-c2nc3c4c5c(sc4[nH]c(=O)n3n2)CCC5)c(C)o1`, the half-maximal inhibitory concentration (IC50) is 0.69 µM.

Take `Cc1c(C(=O)N2CCN(c3ccc(F)cc3)CC2)sc2nc(-c3ccccc3)cn12`: the IC50 was 48.7 µM.

As for `O=C(CSc1nnc(-c2ccco2)c(-c2ccco2)n1)Nc1ccccc1`, the IC50 was 3.12 µM.

For `COc1cc(-c2cccs2)cc(=O)c2c(C)oc(C)c12`, the IC50 is 3.55 µM.

Turning to `COc1cc(C2Nc3cccc4cccc(c34)N2)cc(OC)c1O`, the IC50 is less than 4.18 µM.

As to `C=CC1=C(C(=O)O)N2C(=O)C(NC(=O)Cc3ccccc3)C2SC1` (stereo not given), the IC50 is 11.5 µM.

On to `Cc1cc2ccccc2n1CCNC(=O)C1CCCCC1`, for which the IC50 was 37.2 µM.

With `O=C(CSc1ccc(Cl)cc1)c1ccco1`, the IC50 was 10.8 µM.

Consider `Cc1cc(C(=O)O)ccc1-n1c(C)ccc1C`, for which the IC50 was 5.16 µM.

With `Cc1c(NC(=O)CN2CCN(c3ccc(O)cc3)CC2)c(=O)n(-c2ccccc2)n1C`, the IC50 was 10.2 µM.

Consider `O=C(CCN1C(=O)/C(=C/c2cccs2)SC1=S)NC1=NCCS1`, for which the IC50 is 12.3 µM.

With `O=C(NC1CC1)c1cc(-c2ccco2)nc2ccccc12`, the IC50 was 2.53 µM.

Regarding `CCC(C)[C@@H](C(=O)Nc1ccc2c(c1)OCO2)N1Cc2ccccc2C1=O` (stereo not given in full), the IC50 was 98.4 µM.

On to `CC1Cc2ccccc2N1Cc1nc2cc(C(F)(F)F)ccc2c(=O)[nH]1` (stereo not given), for which the IC50 is 74.5 µM.

For the compound `O=C(CCc1c[nH]c2ccccc12)N1CCN(c2ccc(O)cc2)CC1`, the IC50 is 13.3 µM.

Take `CN1C(=O)/C(=C/c2ccco2)SC1=Nc1cccc(C(=O)O)c1`: the IC50 is 19 µM.

For the compound `N#CC1=C(Nc2ccccc2)SC=C(c2ccc(Br)cc2)N=C1N1CCOCC1`, the IC50 was 97.1 µM.

On to `CC1=CC(C)(C)N2C(=O)C(=Nc3ccc(O)cc3)c3cccc1c32`, for which the IC50 was 3.5 µM.

Regarding `CCOC(=O)C1=C(c2ccccc2)N=c2s/c(=C\c3ccco3)c(=O)n2C1c1cccs1` (stereo not given), the IC50 was 3.76 µM.

With `N#CC(C(=O)NCc1ccco1)c1nc2ccccc2nc1N1CCOCC1` (stereo not given), the IC50 is 51.7 µM.

As to `O=C1CC(c2ccco2)CC(O)=C1C=Nc1cc(Cl)ccc1Cl` (stereo not given), the IC50 is 4.07 µM.

With `CCN=c1scc(C)n1/N=C/c1ccc(O)c(O)c1O`, the IC50 was 2.47 µM.

For the compound `COc1ccc2c(c1)O[C@@H](c1ccc3c(c1)OCO3)[C@H](OC(=O)Nc1cc(OC)c(OC)c(OC)c1)C2=O`, the IC50 is 66.6 µM.

Take `O=C(N/N=C/c1cccnc1)c1cc(O)c(O)c(O)c1`: the concentration for half-maximal inhibition (IC50) was 21.7 µM.

Take `CCOC(=O)N1CC=C2C(C#N)=C(N)C(C#N)(C#N)[C@H](c3cccs3)[C@H]2C1`: the IC50 was 4.68 µM.

Consider `O=C(COC(=O)/C=C/c1ccco1)Nc1ncc(C(F)(F)F)cc1Cl`, for which the IC50 is 12.7 µM.

Consider `O=C1CC(c2ccco2)CC(O)=C1C=Nc1cc(Cl)ccc1O` (stereo not given), for which the IC50 is 4.47 µM.

Regarding `O=c1c2cc(N3CCOCC3)ccc2[nH]c(=S)n1Cc1ccco1`, the IC50 is 7.24 µM.

`COc1ccccc1CNC(=O)COC(=O)c1cc(-c2ccco2)nc2ccccc12`: the IC50 is 9.99 µM.

For `O=C(O)c1ccc(-n2cccc2/C=C2/NC(=O)N(c3ccccc3)C2=O)cc1`, the IC50 was 3.34 µM.

`COc1ccccc1N1C(=O)NC(=O)/C(=C/c2ccc([N+](=O)[O-])s2)C1=O`: the IC50 was 6.9 µM.

As for `CC(=O)NN1C(=O)/C(=C/c2ccc(Br)o2)SC1=S`, the IC50 was 11.7 µM.
